Source: US10239882B2, “Substituted 5-methyl-[1,2,4]triazolo[1,5-a]pyrimidin-2-amine compounds as PDE2 inhibitors” (DART NEUROSCIENCE (CAYMAN) LTD., priority 2014, dated 2019)

Target: FLAG-tagged PDE2A1 (amino acids 2-941) (Homo sapiens (Human), UniProt O00408)
Test: IMAP TR-FRET PDE2A enzymatic assay
Assay type: biochemical
Settings: 200 nM FAM-cAMP substrate, 11-point half-log dose-response

Sequence of FLAG-tagged PDE2A1 (amino acids 2-941) (O00408 2-941): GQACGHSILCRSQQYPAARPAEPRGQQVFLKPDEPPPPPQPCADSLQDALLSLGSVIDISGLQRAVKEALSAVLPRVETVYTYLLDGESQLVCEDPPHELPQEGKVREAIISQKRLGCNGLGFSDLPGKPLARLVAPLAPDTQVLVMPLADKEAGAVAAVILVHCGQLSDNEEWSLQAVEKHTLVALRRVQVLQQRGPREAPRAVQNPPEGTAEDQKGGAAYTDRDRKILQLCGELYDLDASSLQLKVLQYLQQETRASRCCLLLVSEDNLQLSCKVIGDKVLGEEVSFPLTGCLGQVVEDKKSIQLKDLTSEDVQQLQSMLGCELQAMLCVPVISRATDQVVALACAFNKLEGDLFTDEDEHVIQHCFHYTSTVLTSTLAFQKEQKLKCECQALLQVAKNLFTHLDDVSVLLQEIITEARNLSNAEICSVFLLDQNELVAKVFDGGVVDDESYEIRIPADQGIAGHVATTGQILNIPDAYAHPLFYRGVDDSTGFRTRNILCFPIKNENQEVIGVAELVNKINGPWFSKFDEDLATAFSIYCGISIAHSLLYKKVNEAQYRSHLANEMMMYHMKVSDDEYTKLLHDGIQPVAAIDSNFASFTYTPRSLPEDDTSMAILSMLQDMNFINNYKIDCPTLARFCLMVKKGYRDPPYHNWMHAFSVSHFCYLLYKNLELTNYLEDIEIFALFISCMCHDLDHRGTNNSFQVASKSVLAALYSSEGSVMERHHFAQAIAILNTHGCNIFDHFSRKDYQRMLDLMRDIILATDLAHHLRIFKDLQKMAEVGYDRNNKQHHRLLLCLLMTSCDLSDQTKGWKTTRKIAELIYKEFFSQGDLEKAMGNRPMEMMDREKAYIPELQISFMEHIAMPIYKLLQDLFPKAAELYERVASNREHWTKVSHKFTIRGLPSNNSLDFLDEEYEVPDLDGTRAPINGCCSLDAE

Row | Structure (SMILES) | PDE2 (PIC50) | IC50 (read-out: PDE2 (PIC50))
1 | Cc1cc(C2CCOCC2)n2nc(NCc3cn(-c4ccccc4)nc3C)nc2n1 [Example 46, 5-Methyl-N-[(3-methyl-1-phenyl-1H-pyrazol-4-yl)methyl]-7-(oxan-4-yl)-[1,2,4]triazolo[1,5-a]pyrimidin-2-amine] | >7 | –
2 | COc1ccc(CNc2nc3nc(C)cc(C(C)(C)OC)n3n2)cc1 [Example 77, N-[(4-Methoxyphenyl)methyl]-7-(2-methoxypropan-2-yl)-5-methyl-[1,2,4]triazolo[1,5-a]pyrimidin-2-amine] | – | 1 to 10 µM
